Key:
Type in all cases: functional
Avena sterilis [1] = test: Herbicidal activity against Avena sterilis accession P09 assessed as weed survival at 8 times field recommended herbicide dose
Avena sterilis [2] = test: Herbicidal activity against Avena sterilis accession P12 assessed as weed survival at 1 times field recommended herbicide dose
Avena sterilis [3] = test: Herbicidal activity against Avena sterilis accession P14 assessed as induction of weed mortality
Avena sterilis [4] = test: Herbicidal activity against Avena sterilis accession P17 assessed as induction of weed mortality
Avena sterilis [5] = test: Herbicidal activity against Avena sterilis accession P13S assessed as weed survival at 1/4 times field recommended herbicide dose
Avena sterilis [6] = test: Herbicidal activity against Avena sterilis accession P13S assessed as induction of weed mortality
Avena sterilis [7] = test: Herbicidal activity against Avena sterilis accession P13S assessed as weed survival at 1/16 times field recommended herbicide dose
Avena sterilis [8] = test: Herbicidal activity against Avena sterilis accession P19S assessed as weed survival at 1/8 times field recommended herbicide dose
Avena sterilis [9] = test: Herbicidal activity against Avena sterilis accession P20 assessed as weed survival at 4 times field recommended herbicide dose
Avena sterilis [10] = test: Herbicidal activity against Avena sterilis accession P03 assessed as weed survival at 1 times field recommended herbicide dose
Avena sterilis [11] = test: Herbicidal activity against Avena sterilis accession P21S assessed as induction of weed mortality
Avena sterilis [12] = test: Herbicidal activity against Avena sterilis accession P17 assessed as weed survival at 16 times field recommended herbicide dose
Avena sterilis [13] = test: Herbicidal activity against Avena sterilis accession P16 assessed as weed survival at 8 times field recommended herbicide dose
Avena sterilis [14] = test: Herbicidal activity against Avena sterilis accession P03 assessed as weed survival at 32 times field recommended herbicide dose
Avena sterilis [15] = test: Herbicidal activity against Avena sterilis accession P10S assessed as weed survival at 1/4 times field recommended herbicide dose
Avena sterilis [16] = test: Herbicidal activity against Avena sterilis accession P11 assessed as induction of weed mortality
Avena sterilis [17] = test: Herbicidal activity against Avena sterilis accession P07 assessed as weed survival at 32 times field recommended herbicide dose
Avena sterilis [18] = test: Herbicidal activity against Avena sterilis accession P14 assessed as weed survival at 8 times field recommended herbicide dose
Avena sterilis [19] = test: Herbicidal activity against Avena sterilis accession P12 assessed as weed survival at 4 times field recommended herbicide dose
Avena sterilis [20] = test: Herbicidal activity against Avena sterilis accession P18 assessed as induction of weed mortality
Avena sterilis [21] = test: Herbicidal activity against Avena sterilis accession P16 assessed as weed survival at 1 times field recommended herbicide dose
Avena sterilis [22] = test: Herbicidal activity against Avena sterilis accession P01 assessed as weed survival at 1 times field recommended herbicide dose
Avena sterilis [23] = test: Herbicidal activity against Avena sterilis accession P10S assessed as weed survival at 1 times field recommended herbicide dose
Avena sterilis [24] = test: Herbicidal activity against Avena sterilis accession P16 assessed as weed survival at 4 times field recommended herbicide dose
Avena sterilis [25] = test: Herbicidal activity against Avena sterilis accession P17 assessed as weed survival at 1 times field recommended herbicide dose
Avena sterilis [26] = test: Herbicidal activity against Avena sterilis accession P16 assessed as induction of weed mortality
Avena sterilis [27] = test: Herbicidal activity against Avena sterilis accession P22 assessed as weed survival at 8 times field recommended herbicide dose
Avena sterilis [28] = test: Herbicidal activity against Avena sterilis accession P14 assessed as weed survival at 1 times field recommended herbicide dose
Avena sterilis [29] = test: Herbicidal activity against Avena sterilis accession P11 assessed as weed survival at 16 times field recommended herbicide dose
Avena sterilis [30] = test: Herbicidal activity against Avena sterilis accession P17 assessed as weed survival at 32 times field recommended herbicide dose
Avena sterilis [31] = test: Herbicidal activity against Avena sterilis accession P09 assessed as induction of weed mortality
Avena sterilis [32] = test: Herbicidal activity against Avena sterilis accession P21S assessed as weed survival at 1/8 times field recommended herbicide dose
Avena sterilis [33] = test: Herbicidal activity against Avena sterilis accession P18 assessed as weed survival at 1 times field recommended herbicide dose
Avena sterilis [34] = test: Herbicidal activity against Avena sterilis accession P08 assessed as weed survival at 16 times field recommended herbicide dose
Avena sterilis [35] = test: Herbicidal activity against Avena sterilis accession P08 assessed as weed survival at 1 times field recommended herbicide dose
Avena sterilis [36] = test: Herbicidal activity against Avena sterilis accession P11 assessed as weed survival at 1 times field recommended herbicide dose
Avena sterilis [37] = test: Herbicidal activity against Avena sterilis accession P05 assessed as weed survival at 8 times field recommended herbicide dose
Avena sterilis [38] = test: Herbicidal activity against Avena sterilis accession P03 assessed as weed survival at 16 times field recommended herbicide dose
Avena sterilis [39] = test: Herbicidal activity against Avena sterilis accession P03 assessed as weed survival at 8 times field recommended herbicide dose
Avena sterilis [40] = test: Herbicidal activity against Avena sterilis accession P01 assessed as weed survival at 32 times field recommended herbicide dose
Avena sterilis [41] = test: Herbicidal activity against Avena sterilis accession P20 assessed as weed survival at 8 times field recommended herbicide dose
Avena sterilis [42] = test: Herbicidal activity against Avena sterilis accession P02 assessed as induction of weed mortality
Avena sterilis [43] = test: Herbicidal activity against Avena sterilis accession P15 assessed as induction of weed mortality
Avena sterilis [44] = test: Herbicidal activity against Avena sterilis accession P02 assessed as weed survival at 16 times field recommended herbicide dose
Avena sterilis [45] = test: Herbicidal activity against Avena sterilis accession P05 assessed as weed survival at 32 times field recommended herbicide dose
Avena sterilis [46] = test: Herbicidal activity against Avena sterilis accession P06S assessed as weed survival at 1/32 times field recommended herbicide dose
Avena sterilis [47] = test: Herbicidal activity against Avena sterilis accession P18 assessed as weed survival at 16 times field recommended herbicide dose
Avena sterilis [48] = test: Herbicidal activity against Avena sterilis accession P05 assessed as induction of weed mortality
Avena sterilis [49] = test: Herbicidal activity against Avena sterilis accession P20 assessed as weed survival at 32 times field recommended herbicide dose
Avena sterilis [50] = test: Herbicidal activity against Avena sterilis accession P15 assessed as weed survival at 32 times field recommended herbicide dose
Avena sterilis [51] = test: Herbicidal activity against Avena sterilis accession P02 assessed as weed survival at 8 times field recommended herbicide dose
Avena sterilis [52] = test: Herbicidal activity against Avena sterilis accession P06S assessed as weed survival at 1/16 times field recommended herbicide dose
Avena sterilis [53] = test: Herbicidal activity against Avena sterilis accession P01 assessed as weed survival at 8 times field recommended herbicide dose
Avena sterilis [54] = test: Herbicidal activity against Avena sterilis accession P10S assessed as weed survival at 1/16 times field recommended herbicide dose
Avena sterilis [55] = test: Herbicidal activity against Avena sterilis accession P04 assessed as induction of weed mortality
Avena sterilis [56] = test: Herbicidal activity against Avena sterilis accession P07 assessed as weed survival at 4 times field recommended herbicide dose
Avena sterilis [57] = test: Herbicidal activity against Avena sterilis accession P04 assessed as weed survival at 4 times field recommended herbicide dose
Avena sterilis [58] = test: Herbicidal activity against Avena sterilis accession P20 assessed as weed survival at 16 times field recommended herbicide dose

## C#CCOC(=O)[C@@H](C)Oc1ccc(Oc2ncc(Cl)cc2F)cc1 [CLODINAFOP PROPARGYL]
Avena sterilis [1]
  Survival: 0%
Avena sterilis [2]
  Survival: 100%
Avena sterilis [3]
  GR50: 1219 gAi/ha
Avena sterilis [4]
  GR50: 283 gAi/ha
Avena sterilis [5]
  Survival: 10%
Avena sterilis [6]
  GR50: 5 gAi/ha
Avena sterilis [7]
  Survival: 70%
Avena sterilis [8]
  Survival: 97%
Avena sterilis [9]
  Survival: 73%
Avena sterilis [10]
  Survival: 100%
Avena sterilis [11]
  GR50: 11 gAi/ha
Avena sterilis [12]
  Survival: 27%
Avena sterilis [13]
  Survival: 20%
Avena sterilis [14]
  Survival: 73%
Avena sterilis [15]
  Survival: 40%
Avena sterilis [16]
  GR50: >1312 gAi/ha
Avena sterilis [17]
  Survival: 0%
Avena sterilis [18]
  Survival: 80%
Avena sterilis [19]
  Survival: 97%
Avena sterilis [20]
  GR50: 520 gAi/ha
Avena sterilis [21]
  Survival: 93%
Avena sterilis [22]
  Survival: 97%
Avena sterilis [23]
  Survival: 0%
Avena sterilis [24]
  Survival: 50%
Avena sterilis [25]
  Survival: 97%
Avena sterilis [26]
  GR50: 169 gAi/ha
Avena sterilis [27]
  Survival: 20%
Avena sterilis [28]
  Survival: 97%
Avena sterilis [29]
  Survival: 97%
Avena sterilis [30]
  Survival: 20%
Avena sterilis [31]
  GR50: 46 gAi/ha
Avena sterilis [32]
  Survival: 77%
Avena sterilis [33]
  Survival: 80%
Avena sterilis [34]
  Survival: 73%
Avena sterilis [35]
  Survival: 100%
Avena sterilis [36]
  Survival: 100%
Avena sterilis [37]
  Survival: 40%
Avena sterilis [38]
  Survival: 87%
Avena sterilis [39]
  Survival: 97%
Avena sterilis [40]
  Survival: 40%
Avena sterilis [41]
  Survival: 60%
Avena sterilis [42]
  GR50: >1312 gAi/ha
Avena sterilis [43]
  GR50: >1312 gAi/ha
Avena sterilis [44]
  Survival: 93%
Avena sterilis [45]
  Survival: 0%
Avena sterilis [46]
  Survival: 100%
Avena sterilis [47]
  Survival: 40%
Avena sterilis [48]
  GR50: 180 gAi/ha
Avena sterilis [49]
  Survival: 27%
Avena sterilis [50]
  Survival: 93%
Avena sterilis [51]
  Survival: 97%
Avena sterilis [52]
  Survival: 97%
Avena sterilis [53]
  Survival: 80%
Avena sterilis [54]
  Survival: 80%
Avena sterilis [55]
  GR50: >1312 gAi/ha
Avena sterilis [56]
  Survival: 0%
Avena sterilis [57]
  Survival: 100%
Avena sterilis [58]
  Survival: 57%

— ChEMBL document CHEMBL3046559, “Sterile oat (Avena sterilis L.) cross-resistance profile to ACCase-inhibiting herbicides in Greece” (2012)
